Experimental data published in patent US6599499B1, “Uses of diterpenoid triepoxides as an anti-proliferative agent” (priority 1999, dated 2003).
Values joined by “and” are separate entries in the source; they are usually repeats but may differ in a detail not shown here. Equal entries are not always repeated.

Assays:
Dx5 cells [1] = assay: Internucleosomal DNA laddering in Dx5 cells; type: cell-based, human
Protocol: Cell death reagents and assays. Cell viability was measured by an MTT assay as recently described (Lee et al. (1999) J. Biol. Chem. 274:13451-13455. z-VAD-fluoromethylketone (z-VAD.fmk) was obtained from Alexis Biochemicals, San Diego, Calif. The effect of z-VAD.fmk on cell viability was analyzed by annexin and propidium iodide staining followed by FACS analysis according to the manufacturer's protocol (Clontech Laboratories, Palo Alto, Calif.). The analysis of apoptosis in histologic sections was done by terminal deoxynucleotidyl transferase (TdT)-mediated d-UTP nick end labeling (TUNEL) of slides from paraffin sections of day 3 tumors harvested from the mice 24 h after the second of two daily treatments with PG490-88 or saline. TUNEL staining was done according to the manufacturer's protocol (Boehringer Mannheim, Indianapolis, Ind.) and then the histology slides were counterstained with methyl green. DNA was isolated from cells for analysis of internucleosomal DNA laddering followed by agarose gel electrophoresis and ethidium bromide staining.
In FIG. 1A, ZR-75 (breast cancer), H23 (non-small cell lung cancer) and Dx5 (MDR uterine sarcoma) cell lines were treated with PG490 at dosages shown and harvested 48 h later for analysis of cell viability by an MTT assay. […]

Dx5 and H23 cells = assay: Growth arrest / cell cycle progression in Dx5 and H23 cells; type: cell-based, human
p53 translation = p53 translation by [35S]methionine metabolic labeling of MCF-7 cells; type: cell-based, human; conditions: MCF-7, triptolide 20 ng/ml pretreatment 6 h
Protocol: Metabolic labeling of MCF-7cells. Cells were grown to 80% confluence followed by pretreatment with triptolide (20 ng/ml) for 6 h in the appropriate medium. Cells were washed twice with short-term labeling medium (RPMI with 5% dialyzed FCS supplemented with L-glutamine, penicillin, and streptomycin). To deplete intracellular pools of methionine short-term labeling medium was added for 15 min at 37° C., then replaced by short-term labeling medium containing 0.1 mCi/ml [^35S] methionine (Amersham, Inc.). Cells were labeled for 30 min at 37° C. and washed with ice-cold PBS before harvesting for immunoprecipitation. The cells were lysed using RIPA buffer supplemented with protease inhibitors and immunoprecipitated using an agarose-conjugated p53 mAb (Ab-6, Oncogene Research Products) followed by 10% SDS-PAGE. The intensity of labeled p53 protein was measured by NIH Image 1.62.

p21 mRNA = p21 mRNA by Northern blot in HT1080 cells; type: cell-based, human; conditions: triptolide 20 ng/ml
Protocol: Northern Blot Analysis. RNA was prepared from HT1080 cells using RNeasy Mini Kit from Qiagen Inc. (Valencia, Calif.). cDNAs for Northern blot analysis for p21 and p53 were prepared using RT-PCR with […] of total RNA. The following primer pairs were used: p53, (SEQ ID NO:11) 5′-[…]-3′ and (SEQ ID NO:12) 5′-[…]-3′; p21, (SEQ ID NO:13) 5′-[…]-3′ and (SEQ ID NO:14) 5′-[…]-3′; and glyceraldehyde-3-phosphate dehydrogenase, (SEQ ID NO:15) 5′-[…]-3′ and 5′-(SEQ ID NO:16) […]-3′.

[2] = tested on: p53 consensus binding site; assay: Electromobility shift assay of p53 DNA binding; type: cell-based, human
Protocol: Electromobility Shift Assay (EMSA. HT1080 cells were treated as shown. The EMSA was performed as described previously using an end-labeled 32P-p53 consensus binding site (Santa Cruz Biotechnology, Santa Cruz, Calif.) (Lee et al., supra.)

p53 [3] = assay: p53 protein stability in the presence of cycloheximide; type: cell-based, human
Protocol: Immunoblot analysis using other antibodies was performed as described above. The band intensity was measured by NIH Image 1.62.
Immunoblotting. Cells were harvested at the conditions and times indicated and lysed using HNET buffer (50 mM HEPES, pH 7.5, 100 mM NaCl, 1 mM EGTA, and 1% Triton X-100) supplemented with 1 mM dithiothreitol, 1 mM phenylmethylsulfonyl fluoride, and protease inhibitors mixture (Roche Molecular Biochemicals). 100 μg of protein was loaded on 10% SDS-PAGE followed by transferring to polyvinylidene difluoride membrane. Immunoblotting was performed as described previously using a p53 mouse monoclonal antibody from Oncogene Research Products. […] Immunoblot analysis using other antibodies was performed as described above. The band intensity was measured by NIH Image 1.62.

p53 [4] = assay: p53 translocation into the nucleus, sub-cellular fractionation of MCF-7 cells; type: cell-based, human; conditions: MCF-7, triptolide 20 ng/ml
Protocol: Sub-cellular fractionation of MCF-7 cells. After treatment with triptolide (5 or 20 ng/ml) and/or doxorubicin (100 nM) cytosolic and nuclear extracts were prepared as previously described (Lee et al. (1988) Gene Anal Tech 5:22-31) and 50 μg of each extract was used in SDS/PAGE immunoblot analysis of p53.

[5] = room temperature
Protocol: Stock solutions of PG490-88 (1 mg/ml) were prepared by dissolution in 0.9% NaCl and sterilized by microfiltration using 0.2 μm pore size filters (Supor Acrodisc 25, Gelman Sciences, Ann Arbor, Mich.). The PG490-88 stock solutions were diluted in 0.9% NaCl for IP administration.

[6] = Observable toxicity in treated mice (body weight, activity, respiration); type: in vivo
Protocol: PG490-88 (0.75 mg/kg) as measured by a change in body weight, altered activity or labored respiration.

HT1080 tumor cells = assay: Nude mouse xenograft, established HT1080 tumors; type: in vivo, nude mice; conditions: PG490-88 0.75 mg/kg IP days 0-5 and 7-11, CPT-11 11 mg/kg IV days 1, 5, 9
Protocol: Mice. […] Nude mouse xenograft model. HT1080 tumor cells were grown in tissue culture flasks and harvested using EDTA and trypsin. Cells were centrifuged and the concentration of viable cells was appropriately adjusted. […] Tumor size was monitored after tumor cell implantation by measuring the width, length and thickness of the tumors and using a formula to calculate the volume. […] Control mice were left untreated. […] Combination therapy mice received both PG490-88 and CPT-11 treatments.

NF-κB = NF-κB transcriptional activity in HT1080 cells; type: cell-based, human
Dx5 cells [7] = conditions: cited from earlier work

SMILES: CC(C)[C@]12O[C@H]1[C@@H]1O[C@]13[C@]1(O[C@H]1C[C@H]1C4=C(CC[C@@]13C)C(=O)OC4)[C@@H]2O [PG490, triptolide]
- DNA laddering, time it began (Dx5 cells [1]): 6 h
- DNA laddering, time of maximum (Dx5 cells [1]): ≤ 16 h
- growth arrest / cell cycle progression (Dx5 and H23 cells): did not cause growth arrest or significantly affect cell cycle progression
- increase in p53 translation (p53 translation): 4.9 fold and 5 fold
- effect on doxorubicin-mediated induction of p21 mRNA (p21 mRNA): completely blocked
- DNA binding of p53 ([2]; triptolide alone): slightly enhanced
- effect on doxorubicin-mediated induction of DNA binding of p53 ([2]; triptolide in combination with doxorubicin): did not block
- p53 stability versus untreated cells (p53 [3]; HT1080, triptolide 20 ng/ml 0.5 h prior to cycloheximide 30 μg/ml): no difference from untreated cells at 60 min
- p53 stability versus untreated cells (p53 [3]; MCF-7, triptolide 0.5 h prior to cycloheximide 30 μg/ml): no difference from untreated cells at 60 min
- localisation of the majority of p53 (p53 [4]): translocated into nuclei

SMILES: CC(C)[C@]12O[C@H]1[C@@H]1O[C@]13[C@]1(O[C@H]1C[C@H]1C4=C(CC[C@@]13C)C(=O)OC4)[C@@H]2OC(=O)CCC(=O)[O-].[Na+] [PG490-88, 14-succinyl triptolide sodium salt]
- half-life in mouse serum [5]: < 5 min
- observable toxicity (change in body weight, altered activity or labored respiration) ([6]; PG490-88 0.75 mg/kg): no observable toxicity
- tolerability ([6]; triptolide dosage on molar comparison to PG490-88 70 μg/mouse/week): well tolerated
- TV Mean Day 4 (HT1080 tumor cells): 167
- TV Mean Day 7 (HT1080 tumor cells): 208
- TV Mean Day 10 (HT1080 tumor cells): 247
- TV Mean Day 14 (HT1080 tumor cells): 532
- TV Mean Day 0 (HT1080 tumor cells; baseline): 107

SMILES: COc1cccc2c1C(=O)c1c(O)c3c(c(O)c1C2=O)C[C@@](O)(C(=O)CO)C[C@@H]3O[C@H]1C[C@H](N)[C@H](O)[C@H](C)O1 [doxorubicin, reference compound]
- NF-κB transcriptional activity (NF-κB): did not induce
- fold more resistant than the MES-SA parent cell line (Dx5 cells [7]): 100 fold
